Here are results for eight compounds from ChEMBL document CHEMBL1201862, “PubChem BioAssay data set” (2004).

Some test systems named below: Malme-3M; A549; A498; HOP-92; NCI-H23; LOX IMVI; ACHN; NCI-H522; HCT-15; CCRF-CEM; COLO 205; HCC 2998; HT-29; M14; SF-295; OVCAR-8; SN12C; SR; MOLT-4; 786-0.
Experiment in all cases: inhibition of tumour cell growth, NCI panel, 48 h

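These data come from cells grown in 96-well plates and exposed to compound for 48 hours at five concentrations. Abbreviation: GI50, concentration required for 50% inhibition of growth.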 Active and inactive are the calls of the source. Cut-off read from the data, not from the text of the source: active = GI50 up to about 1.1 µM and inactive = higher. Some results are limits rather than exact numbers.

`Cc1cc2nc3c(N)nn(CCN(C)C)c3nc2cc1C`: the GI50 is 34.2 µM (inactive) in the assay with Malme-3M; 31.9 µM (inactive) in the assay on A549; 38.3 µM (inactive) in the assay on A498; 38.5 µM (inactive) with HOP-92; 38.2 µM (inactive) in the assay on NCI-H23; 25.9 µM (inactive) with LOX IMVI. Besides, the GI50 is 28.4 µM (inactive) in the assay with ACHN; 40.1 µM (inactive) in the assay with NCI-H522; 36.4 µM with HCT-15; 42.3 µM (inactive) in the assay on CCRF-CEM; 28.1 µM (inactive) in the assay with COLO 205; 51.6 µM (inactive) with HCC 2998. The GI50 in the assay on HT-29 is 27.4 µM (inactive); with M14, 61.2 µM (inactive); in the assay with SF-295, 78.7 µM (inactive); in the assay on OVCAR-8 it was 33.8 µM (inactive); in the assay on SN12C it was 36.7 µM (inactive); with SR, > 100 µM (inactive). In addition, the GI50 is 41.8 µM (inactive) in the assay on MOLT-4 and 40.1 µM (inactive) in the assay with 786-0.

In the case of `CC(=O)O[C@H]1[C@@H](N2CCOCC2)C[C@H]2[C@@H]3CC=C4C[C@@H](N5CCCC5)CC[C@]4(C)[C@H]3CC[C@@]21C`, the GI50 in the assay with Malme-3M was > 100 µM (inactive); in the assay with A549 it was > 100 µM (inactive); in the assay on A498 it was > 100 µM (inactive); in the assay with HOP-92, 85.9 µM (inactive); in the assay on NCI-H23, > 100 µM (inactive); in the assay with LOX IMVI, > 100 µM (inactive). For the same compound, the GI50 is > 100 µM (inactive) with ACHN; > 100 µM (inactive) with NCI-H522; greater than 100 µM with HCT-15; > 100 µM (inactive) in the assay with CCRF-CEM; > 100 µM (inactive) in the assay with COLO 205; 48.8 µM (inactive) with HCC 2998. The GI50 in the assay with HT-29 was 5.21 µM (inactive); with M14, 35.4 µM (inactive); in the assay with SF-295 it was > 100 µM (inactive); with OVCAR-8 it was > 100 µM (inactive); with SN12C it was > 100 µM (inactive); in the assay on SR, 49.7 µM (inactive). The GI50 with MOLT-4 and with 786-0 was > 100 µM (inactive) throughout.

Consider `COc1cc(/C=N/N=C(\N)NO)cc(OC)c1OC`, for which the GI50 is 22 µM (inactive) with Malme-3M; 18.7 µM (inactive) with A549; 46.3 µM (inactive) with A498; 23.5 µM (inactive) with HOP-92; 38.2 µM (inactive) in the assay with NCI-H23; 31.1 µM (inactive) in the assay with LOX IMVI. Besides, the GI50 with ACHN was 21.5 µM (inactive); with NCI-H522, 34.8 µM (inactive); in the assay with HCT-15, 28.6 µM; in the assay on CCRF-CEM, 31.8 µM (inactive); with COLO 205, 12.4 µM (inactive); with HCC 2998, 36.6 µM (inactive). The GI50 was 22.8 µM (inactive) in the assay on HT-29; 28.4 µM (inactive) with M14; 25.2 µM (inactive) in the assay on SF-295; 18.5 µM (inactive) with OVCAR-8; 33.8 µM (inactive) in the assay with SN12C; 24.5 µM (inactive) in the assay on SR. The GI50 in the assay with MOLT-4 is 40.6 µM (inactive); with 786-0, 15.4 µM (inactive).

As for `O=C1NC(=O)C(C(CC(=O)c2ccc(Cl)cc2)c2ccc(Cl)cc2)C(=O)N1` (stereo not drawn), the GI50 in the assay on Malme-3M is 0.225 µM (active); in the assay with A549, > 100 µM (inactive); in the assay on A498 it was > 100 µM (inactive); in the assay with HOP-92, 40.4 µM (inactive); in the assay on NCI-H23, > 100 µM (inactive); in the assay with LOX IMVI it was 54 µM (inactive). Besides, the GI50 is > 100 µM (inactive) in the assay with ACHN; > 100 µM (inactive) with NCI-H522; greater than 100 µM in the assay with HCT-15; 42.2 µM (inactive) with CCRF-CEM; 6.73 µM (inactive) in the assay on HCC 2998; > 100 µM (inactive) in the assay on HT-29. Moreover, the GI50 in the assay on M14 was > 100 µM (inactive); in the assay on SF-295, > 100 µM (inactive); in the assay with OVCAR-8 it was > 100 µM (inactive); in the assay with SN12C, > 100 µM (inactive); with SR, 35.2 µM (inactive); with MOLT-4 it was 74 µM (inactive). In the assay with 786-0, the GI50 is > 100 µM (inactive).

For `CCOC(=O)c1cc(C(=O)c2ccccc2)n2nc(-c3ccc(Cl)cc3)ccc12`, the GI50 in the assay on Malme-3M was 19.5 µM (inactive); in the assay on A549, 15.4 µM (inactive); with A498 it was 16.8 µM (inactive); in the assay on HOP-92 it was 24.8 µM (inactive); in the assay with NCI-H23, 27 µM (inactive); with LOX IMVI, 56.4 µM (inactive). The GI50 was 15 µM (inactive) in the assay on ACHN; 18.5 µM (inactive) in the assay with NCI-H522; 33.9 µM with HCT-15; > 100 µM (inactive) with CCRF-CEM; 50.7 µM (inactive) with COLO 205; 23.2 µM (inactive) in the assay with HCC 2998. The GI50 is 23.7 µM (inactive) with HT-29; 31.8 µM (inactive) with M14; 20.4 µM (inactive) with SF-295; 25.2 µM (inactive) in the assay on SN12C; 72.6 µM (inactive) in the assay with SR; > 100 µM (inactive) in the assay on MOLT-4. In addition, the GI50 with 786-0 was 15.2 µM (inactive).

`COc1ccc(C2=Nc3ccccc3SC(C)C2)cc1OC` (stereo not drawn): the GI50 is 21.4 µM (inactive) with Malme-3M; 23.8 µM (inactive) in the assay on A498; 38.1 µM (inactive) with HOP-92; 17.7 µM (inactive) in the assay on NCI-H23; 17.9 µM (inactive) in the assay on LOX IMVI; 22.1 µM (inactive) with ACHN. Further, the GI50 in the assay on NCI-H522 is 17.4 µM (inactive); with HCT-15 it was 17.8 µM; in the assay on CCRF-CEM it was 31.8 µM (inactive); with COLO 205 it was 20.4 µM (inactive); with HCC 2998, 18.6 µM (inactive); in the assay with HT-29, 19.7 µM (inactive). Besides, the GI50 is 18.6 µM (inactive) in the assay on M14; 21 µM (inactive) with SF-295; 22.8 µM (inactive) in the assay on OVCAR-8; 20.3 µM (inactive) with SN12C; 20.8 µM (inactive) in the assay on SR; 14.5 µM (inactive) with MOLT-4. Further, the GI50 with 786-0 is 16.3 µM (inactive).

`O=C(O)c1cc2cc(OCc3ccccc3)ccc2[nH]1`: the GI50 in the assay with Malme-3M is 0.116 µM (active); with A549, > 100 µM (inactive); with A498, 87.5 µM (inactive); with HOP-92, 23.6 µM (inactive); with NCI-H23 it was > 100 µM (inactive); in the assay with LOX IMVI, > 100 µM (inactive). For the same compound, the GI50 in the assay on ACHN was > 100 µM (inactive); in the assay with NCI-H522, > 100 µM (inactive); in the assay with HCT-15, greater than 100 µM; in the assay on CCRF-CEM, > 100 µM (inactive); in the assay with COLO 205, > 100 µM (inactive); in the assay with HCC 2998, > 100 µM (inactive). Besides, the GI50 in the assay with M14, in the assay with SF-295, with OVCAR-8, with SN12C, in the assay with SR and in the assay with MOLT-4 was > 100 µM (inactive) throughout. For the same compound, the GI50 in the assay with 786-0 is > 100 µM (inactive).

As for `COc1ccc2c(=O)c(C)c(-c3ccccc3)oc2c1CN(C)C` [DIMEFLINE], the GI50 with Malme-3M, in the assay with A549, in the assay with A498, in the assay with HOP-92, in the assay on NCI-H23 and in the assay on LOX IMVI was > 100 µM (inactive) each time. Besides, the GI50 in the assay on ACHN, in the assay on NCI-H522, in the assay on CCRF-CEM, in the assay on COLO 205, in the assay on HCC 2998 and in the assay on M14 was > 100 µM (inactive) in each case. Besides, the GI50 in the assay on SF-295, with OVCAR-8, in the assay with SR, in the assay on MOLT-4 and with 786-0 was > 100 µM (inactive) in each case.
